The structures appear in SMILES notation. Read-outs that look alike come from different tables or passages of the source. Where only a bound is given, the exact number is not on record here.

The values below come from US20200405752A1, “ANTITUMOR AGENT, ANTITUMOR EFFECT ENHANCER, AND ANTITUMOR KIT” (FUJIFILM Corporation, priority 2018, published 2020).

In the test the test system is human pancreatic cancer-derived cell line SUIT-2. The test is described as follows: Cell viability (CellTiter Glo, intracellular ATP) of SUIT-2 in combination with cisplatin or oxaliplatin. The format is cell-based. The conditions noted are these: for viability at 0.0015 µM / viability at 0.0046 µM / viability at 0.0137 µM / viability at 0.0412 µM / viability at 0.1235 µM / viability at 0.3704 µM / viability at 1.1111 µM / viability at 3.3333 µM / viability at 10 µM / viability at 0.001 µM / viability at 0.003 µM / viability at 0.01 µM / viability at 0.03 µM / viability at 0.1 µM / viability at 0.3 µM / viability at 1 µM / viability at 3 µM / IC50: Homo sapiens; for viability at 0.0015 µM / viability at 0.0046 µM / viability at 0.0137 µM / viability at 0.0412 µM / viability at 0.1235 µM / viability at 0.3704 µM / viability at 1.1111 µM / viability at 3.3333 µM / viability at 10 µM / viability at 0.001 µM / viability at 0.003 µM / viability at 0.01 µM / viability at 0.03 µM / viability at 0.1 µM / viability at 0.3 µM / viability at 1 µM / viability at 3 µM: SUIT-2, 72 h, 3 days; for viability at 0.0015 µM / viability at 0.0046 µM / viability at 0.0137 µM / viability at 0.0412 µM / viability at 0.1235 µM / viability at 0.3704 µM / viability at 1.1111 µM / viability at 3.3333 µM / viability at 10 µM / viability at 0.001 µM / viability at 0.003 µM / viability at 0.01 µM / viability at 0.03 µM / viability at 0.1 µM / viability at 0.3 µM / viability at 1 µM / viability at 3 µM / combination index (CI): SUIT-2; for viability at 0.0015 µM: test substance 1.5 nM; for viability at 0.0046 µM: test substance 4.6 nM; for viability at 0.0137 µM: test substance 13.7 nM; for viability at 0.0412 µM: test substance 41.2 nM; for viability at 0.1235 µM: test substance 123.5 nM; for viability at 0.3704 µM: test substance 370.4 nM; for viability at 1.1111 µM: test substance 1111.1 nM; for viability at 3.3333 µM: test substance 3333.3 nM; for viability at 0.001 µM: test substance 1 nM; for viability at 0.003 µM: test substance 3 nM; for viability at 0.01 µM: test substance 10 nM; for viability at 0.03 µM: test substance 30 nM; for viability at 0.1 µM: test substance 100 nM; for viability at 0.3 µM: test substance 300 nM; for viability at 1 µM: test substance 1000 nM; for viability at 3 µM: test substance 3000 nM; for IC50: SUIT-2, SUIT-2, read-out: IC50 value (concentration that inhibits cell viability by 50%); for combination index (CI): CI<1 synergistic. From the text:
Evaluation of antitumor activity against human pancreatic cancer-derived cell line SUIT-2 by combination use of cisplatin and oxaliplatin
Gemcitabine (hereinafter, also referred to as Gem), cisplatin, oxaliplatin, and methanesulfonate of Compound A were used as test substances.
Gemcitabine hydrochloride (manufactured by Plantex Co., Ltd.) dissolved in dimethyl sulfoxide (DMSO) was used as gemcitabine. Cisplatin (Cat. #039-20091, manufactured by Wako Pure Chemical Industries, Ltd.) and oxaliplatin (Cat. #00372, manufactured by Tokyo Chemical Industry Co., Ltd.), each of which dissolved in serum-free RPMI-1640 medium (Cat. #11875-119, manufactured by Thermo Fisher Scientific Inc.), were used as cisplatin and oxaliplatin, respectively.
Human pancreatic cancer cell line SUIT-2 cells were subcultured in RPMI-1640 medium supplemented with 10% serum (Cat. #10437-028, manufactured by Thermo Fisher Scientific Inc.). During this test, all cell cultures were carried out in a CO2 incubator (set to 37° C. and 5% CO2, saturated with water vapor). The culture was diluted with a 10% serum-supplemented medium to a cell density of 15000 cells/well/100 μL and the cells were seeded on a 96-well plate. On the next day, the culture supernatant of each well was discarded, followed by washing twice with 150 μL of serum-free medium, and 100 μL of serum-free medium was added thereto, followed by culturing for 3 days.
The methanesulfonate of Compound A and gemcitabine were dissolved in DMSO to prepare 100 mmol/L DMSO solutions thereof. The thus-prepared DMSO solutions were diluted sequentially with DMSO to prepare DMSO solutions having a final treatment concentration of 1000-fold dilution. Cisplatin and oxaliplatin were dissolved in serum-free medium to prepare a cisplatin solution 30 μmol/L and an oxaliplatin solution 60 μmol/L, respectively. The DMSO diluted solutions of Compound A and gemcitabine were diluted with the cisplatin solution (30 μmol/L) or the oxaliplatin solution (60 μmol/L) to prepare treatment liquids having a final treatment concentration of 6-fold dilution. Compound A and gemcitabine were used with a maximum concentration of 10 μmol/L at a common ratio of 1/3 and 9 concentrations in combination with cisplatin or oxaliplatin.
20 μL of Compound A or gemcitabine diluted with the cisplatin solution (30 μmol/L) or the oxaliplatin solution (60 μmol/L) was added to each well. In addition, a group in which only a solvent containing no drug was added to wells in which cells were seeded (positive control), and a group in which only a solvent containing no drug was added to wells containing only a medium (negative control) were provided. All groups were set to n=3 well.
The cells were cultured for 3 days after the addition of the drug, and the cell viability was evaluated using a CellTiter Glo (registered trademark) Reagent (Cat. #G7570, manufactured by Promega Corporation) with the intracellular ATP level as an index. The concentration that inhibits cell viability by 50% (IC50 value) was calculated using XLFit software Ver.3 (registered trademark, manufactured by CTC Laboratory Systems Corporation).
The cell viability of each well was determined with the luminescence signal level of the negative control being 0% cell viability and the luminescence signal level of the positive control being 100% cell viability. The average value and standard deviation of the cell viability of each treatment group were calculated to prepare Table 1 and Table 2.
On the combinational effect of the embodiment of the invention, the results of evaluation using a combination index (CI) which is a quantitative index of the combinational effect are shown. The CI can be calculated by the following equation according to Cancer Research, 2010, Vol. 70, pp. 440 to 446.
That is, in a case where the drugs to be used in combination are drug 1 and drug 2, the CI at a certain drug concentration is […]

Where [1] appears, read: with cisplatin 5 μmol/L, test substance 10000.0 nM.
Where [2] appears, read: with oxaliplatin 10 μmol/L, test substance 10000 nM.
Setting [3] is: used in combination with cisplatin (5 μmol/L, Table 1).
Where [4] appears, read: used in combination with oxaliplatin (10 μmol/L, Table 2).

For orientation: viability means a read-out of living cells in per cent, often relative to untreated cells. `Nc1ccn([C@@H]2S[C@H](CO)[C@@H](O)[C@@H]2F)c(=O)n1` [Compound A, 1-(2-deoxy-2-fluoro-4-thio-β-D-arabinofuranosyl)cytosine]: for the setting “with cisplatin 5 μmol/L”, the viability at 0.0015 µM is 96%, the viability at 0.0046 µM was 80%, the viability at 0.0137 µM was determined as 47% and the viability at 0.0412 µM is 33%. Under “with cisplatin 5 μmol/L”, the viability at 0.1235 µM amounted to 28%, the viability at 0.3704 µM was found to be 28%, the viability at 1.1111 µM is 26% and the viability at 3.3333 µM is 27%. For the same molecule, the viability at 10 µM under setting [1] is 30%. Moreover, where the note is “with oxaliplatin 10 μmol/L”, the viability at 0.001 µM was found to be 94%, the viability at 0.003 µM was 93%, the viability at 0.01 µM worked out at 87% and the viability at 0.03 µM stood at 60%. For the same molecule, under “with oxaliplatin 10 μmol/L”, the viability at 0.1 µM turned out to be 46%, the viability at 0.3 µM was 41%, the viability at 1 µM amounted to 38% and the viability at 3 µM was found to be 39%. In addition, the viability at 10 µM under setting [2] worked out at 38%. In addition, the IC50 under setting [3] worked out at 0.0129 µM. For the same molecule, the IC50 under setting [4] is 0.0734 µM. Besides, the “combination index (CI)” value (combination with cisplatin) was 0.36. Also, the “combination index (CI)” value (combination with oxaliplatin) was 0.44.

Consider `Nc1ccn([C@@H]2O[C@H](CO)[C@@H](O)C2(F)F)c(=O)n1` [Gemcitabine], for which, under “with cisplatin 5 μmol/L”, the viability at 0.0015 µM was found to be 98%, the viability at 0.0046 µM turned out to be 97%, the viability at 0.0137 µM is 99% and the viability at 0.0412 µM amounted to 94%. For the same molecule, under “with cisplatin 5 μmol/L”, the viability at 0.1235 µM turned out to be 82%, the viability at 0.3704 µM was determined as 73%, the viability at 1.1111 µM worked out at 54% and the viability at 3.3333 µM worked out at 32%. For the same molecule, the viability at 10 µM under setting [1] was 22%. For the same molecule, under “with oxaliplatin 10 μmol/L”, the viability at 0.001 µM came to 98%, the viability at 0.003 µM turned out to be 102%, the viability at 0.01 µM amounted to 97% and the viability at 0.03 µM amounted to 97%. For the same molecule, where the note is “with oxaliplatin 10 μmol/L”, the viability at 0.1 µM is 101%, the viability at 0.3 µM is 96%, the viability at 1 µM amounted to 89% and the viability at 3 µM worked out at 80%. Besides, the viability at 10 µM under setting [2] came out at 61%. Besides, under setting [3], the IC50 was 1.14 µM. In addition, the IC50 under setting [4] was no less than 10 µM. Also, the “combination index (CI)” value (combination with cisplatin) was determined as 0.96. The “combination index (CI)” value (combination with oxaliplatin) is on record as 0.97.
